# According to ChEMBL document CHEMBL5620427, “Recent advances in Fragment-based strategies against tuberculosis” (Eur J Med Chem, 2023):
# pEC50, pIC50, pKd: −log10 of the molar value.
# Key:
# [1] = target: T1, Enoyl-[acyl-carrier-protein] reductase [NADH] (Mycobacterium tuberculosis, UniProt P9WGR1); assay: Inhibition of Mycobacterium tuberculosis InhA; settings: for IC50: read-out: pIC50 (converted); for pIC50: read-out: IC50
# T1 sequence (P9WGR1 whole entry): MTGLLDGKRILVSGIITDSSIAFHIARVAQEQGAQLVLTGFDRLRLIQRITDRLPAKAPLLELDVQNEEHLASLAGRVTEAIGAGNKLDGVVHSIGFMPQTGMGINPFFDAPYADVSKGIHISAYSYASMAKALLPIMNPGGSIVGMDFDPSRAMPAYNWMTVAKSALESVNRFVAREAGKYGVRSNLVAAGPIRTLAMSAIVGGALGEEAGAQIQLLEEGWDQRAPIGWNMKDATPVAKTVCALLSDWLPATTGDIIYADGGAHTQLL
# [2] = tested on: Mycobacterium tuberculosis; assay: Antimycobacterial activity against Mycobacterium tuberculosis H37Rv assessed as reduction in bacterial growth incubated for 7 days by resazurin dye based assay; format: functional; settings: 168 h, time 7 day
# [3] = tested on: Mycobacterium tuberculosis; assay: Antimycobacterial activity against Mycobacterium tuberculosis H37Rv ATCC 25618 assessed as bacterial growth inhibition; format: functional
# [4] = target: HTH-type transcriptional regulator EthR (Mycobacterium tuberculosis, UniProt P9WMC1); assay: Inhibition of Mycobacterium tuberculosis EthR by SPR assay
# [5] = tested on: Mycobacterium tuberculosis; assay: Antibacterial activity against Mycobacterium tuberculosis ATCC 27294 assessed as reduction in bacterial cell growth measured after 48 hrs by broth microdilution method; format: functional
# [6] = tested on: Mycobacterium tuberculosis; assay: Antimycobacterial activity against Mycobacterium tuberculosis infected in mouse macrophage cells assessed as bacterial growth inhibition; format: functional, organism-based
# [7] = tested on: Mycobacterium tuberculosis; assay: Antimycobacterial activity against Mycobacterium tuberculosis Erdman infected in BALB/c mouse model assessed as log reduction of bacterial load in lung at 200 mg/kg administered via oral gavage for 2 weeks; format: functional
# [8] = Metabolic stability in CD-1 mouse liver microsomes assessed as intrinsic clearance at 20 uM measured after 40 mins by LC-MS/MS analysis; format: ADME, Microsome
# [9] = target: HTH-type transcriptional regulator EthR (Mycobacterium tuberculosis) (UniProt P9WMC1); assay: Binding affinity to Mycobacterium tuberculosis EthR assessed as change in melting temperature at 20 uM by thermal shift assay
# [10] = Inhibition of Mycobacterium tuberculosis RV0078 EthR2
# [11] = tested on: Mycobacterium tuberculosis; assay: Binding affinity to Mycobacterium tuberculosis RV0078 EthR2 assessed as change in melting temperature at 1 uM by thermal shift assay
# [12] = Metabolic stability in mouse liver microsomes assessed as intrinsic clearance; format: ADME, Microsome; settings: read-out: CLH
# [13] = target: T1, Enoyl-[acyl-carrier-protein] reductase [NADH]; assay: Binding affinity to Mycobacterium tuberculosis InhA assessed as dissociation constant
# [14] = target: HTH-type transcriptional regulator EthR (Mycobacterium tuberculosis) (UniProt P9WMC1); assay: Binding affinity to Mycobacterium tuberculosis EthR assessed as change in melting temperature at 100 uM by thermal shift assay
# [15] = Inhibition of N-terminal His-tagged wild type Mycobacterium tuberculosis Rv1837c GlcB expressed in Escherichia coli BL21 by chromatography method
# [16] = tested on: Mycobacterium tuberculosis; assay: Antimycobacterial activity against Mycobacterium tuberculosis […] assessed as reduction in bacterial growth incubated for 48 hrs by resazurin dye based analysis; format: functional
# [17] = target: T2, Dihydrofolate reductase (Mycobacterium tuberculosis) (UniProt P9WNX1); assay: Binding affinity to Mycobacterium tuberculosis DHFR assessed as change in melting temperature at 5 uM by thermal shift assay
# T2 sequence (whole entry): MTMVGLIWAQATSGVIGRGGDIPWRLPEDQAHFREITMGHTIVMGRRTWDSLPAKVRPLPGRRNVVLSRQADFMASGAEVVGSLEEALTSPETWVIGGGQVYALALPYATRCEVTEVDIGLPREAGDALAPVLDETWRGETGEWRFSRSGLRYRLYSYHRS
# Dihydrofolate reductase = target: T3, Dihydrofolate reductase (Mycobacterium tuberculosis, UniProt P9WNX1); assay: Binding affinity to Mycobacterium tuberculosis DHFR assessed as dissociation constant
# T3 sequence (P9WNX1 whole entry): T2 sequence (whole entry)
# [18] = tested on: Mycobacterium tuberculosis; assay: Antimycobacterial activity against Mycobacterial tuberculosis assessed as log reduction of bacterial load; format: functional
# [19] = tested on: Mycobacterium tuberculosis; assay: Antibacterial activity against Mycobacterium tuberculosis ATCC 27294 assessed as inhibition of cell growth incubated for 7 days by broth dilution method; format: functional; settings: ATCC 27294, 168 h, time 7 day
# [20] = tested on: Mycobacterium tuberculosis; assay: Antimycobacterial activity against Mycobacterium tuberculosis assessed as reduction in microbial growth by broth microdilution method; format: functional
# [21] = tested on: Mycobacterium tuberculosis; assay: Binding affinity to Mycobacterium tuberculosis RV0078 EthR2 assessed as change in melting temperature at 20 uM by thermal shift assay
# [22] = tested on: Mycobacterium tuberculosis; assay: Antimycobacterial activity against Mycobacterium tuberculosis H37Rv assessed as reduction in bacterial cell growth measured after 7 days by resazurin dye based analysis; format: functional; settings: 168 h, time 7 day
# Sequence of HTH-type transcriptional regulator EthR (Mycobacterium tuberculosis) (P9WMC1 whole entry): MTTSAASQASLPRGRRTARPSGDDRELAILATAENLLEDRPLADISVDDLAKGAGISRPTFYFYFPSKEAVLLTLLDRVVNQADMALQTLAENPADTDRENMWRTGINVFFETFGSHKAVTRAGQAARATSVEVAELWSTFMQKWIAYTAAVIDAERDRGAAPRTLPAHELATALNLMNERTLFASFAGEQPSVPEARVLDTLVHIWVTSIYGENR
# Sequence of HTH-type transcriptional regulator EthR (P9WMC1 whole entry): as above
smiles,measurement,setting,value
O=C(NCc1cccnc1)NC1CCCCC1,IC50,[1],> 1000 µM
CC(C)(C)OC(=O)Nc1ccc(I)cc1C(=O)O,pIC50,[1],3.55
same,MIC90,[2],300 µM
Nc1c(Cl)cc(S(N)(=O)=O)cc1Cl,MIC,[3],833 µM
CC(=O)NC1CCN(c2ncccn2)CC1,IC50,[1],> 1000 µM
COc1ccc(CCC(=O)N2CCC(SS[C@@H]3CCN(C(=O)CCc4ccc(OC)cc4)C3)C2)cc1 (stereo partly drawn),pIC50,[4],5.96
CCOC(=O)c1cc(Cl)c(O)c(Cl)c1,MIC99,[5],< 53 µM
O=C(NCCC(F)(F)F)c1ccc(-c2noc(C3CC3)n2)cc1,pEC50,[6],7.15
same,log(activity),[7],2
same,CLH,[8],69 µL/min
same,ΔTm,[9],10.2 °C
O=C1CC2CCC(C1)N2CCc1ccc(Cl)cc1,pIC50,[10],6.00
same,ΔTm,[11],3.4 °C
same,microsomal CLint,[12],60 µL/min/mg
Cc1cc(N)n(Cc2nnc(Nc3ccn(Cc4c(F)cccc4Cl)n3)s2)n1,pKd,[13],5.15
Cc1cc(N)n(Cc2ccc(C(=O)NCc3ccc(F)cc3Cl)cc2)n1,pKd,[13],5.10
CNCc1ccc(N2CCCCC2)cc1,pIC50,[4],< 4.00
same,ΔTm,[14],3.8 °C
O=C(CCC1CCCC1)N1CCCC1,ΔTm,[14],3 °C
NS(=O)(=O)c1cc(Cl)cc(Cl)c1,MIC99,[5],111 µM
Cc1cncc(CNC(=O)NC2CCN(c3ncccn3)CC2)c1,pKd,[13],5.33
O=C(O)/C(O)=C/C(=O)c1ccccc1Br,pIC50,[15],6.22
same,MIC99,[16],6.25 µM
O=C(CCc1c[nH]c2ccccc12)Nc1c(C(=O)O)cnn1-c1ccccc1,ΔTm,[17],5.1 °C
same,pKd,Dihydrofolate reductase,7.77
CC1(C)CCC(Cc2cc(O)c(-c3ccccc3)c(=O)[nH]2)CC1,IC50,[1],10 µM
same,log(activity),[18],1.5
O=C(O)c1cc(Cl)c(O)c(Cl)c1,MIC,[19],971 µM
O=C(Nc1ccc(I)cc1C(=O)O)c1ccc(Cl)c(Cl)c1,pIC50,[1],4.42
same,MIC90,[2],300 µM
O=C(CCCC1CCCCC1)N1CCCC1,MIC50,[20],1 µM
O=C(O)/C=C/c1cccc(C(F)(F)F)c1,ΔTm,[9],3.2 °C
Cc1cc(N)n(Cc2ccccc2)n1,pKd,[13],5.48
O=C1CC2CCC(C1)N2CCc1ccc(C(F)(F)F)cc1,pIC50,[10],6.70
same,ΔTm,[21],0.6 °C
O=C(OCCCC1CCCC1)N1CCCC1,MIC50,[20],1 µM
O=C(O)/C(O)=C/C(=O)c1ccc2[nH]ccc2c1,pIC50,[15],7.70
COc1ccc(-c2nc(O)c3ccccc3n2)cc1,MIC99,[22],31.5 µg/mL
Cc1c(C(=O)O)cnn1-c1ccccc1,ΔTm,[17],1.2 °C
same,pKd,Dihydrofolate reductase,6.19
N#Cc1ccc(N2CCC(CCC(=O)N3CCCC3)CC2)cc1,ΔTm,[14],7.5 °C
CCNc1nnc(Cn2nc(C)cc2C)s1,IC50,[1],> 1000 µM
Cc1ccn(C(C)c2nnc(Nc3ccn(Cc4c(F)cccc4Cl)n3)s2)n1 (stereo not drawn),pKd,[13],5.20
